Measured values taken from ChEMBL document CHEMBL5726992, “CGRP receptor antagonists” (2019).

Biological target: Calcitonin-gene-related peptide receptor, CALCRL/RAMP1 (Homo sapiens, UniProt O60894+Q16602)
Assay: Radioligand Binding Assay: Human CGRP receptors expressed (consisting of CRLR and RAMP1) in insect Sf21 cell membrane homogenates were re-suspended in the binding buffer (10 mM HEPES, pH 7.4, 5 mM MgCl2, 0.2% BSA) to a final assay concentration of 0.6 μg protein per well. Saturation isotherms were determined by the addition of various concentrations of 3H-telcagepant (Ho et al, The Lancet, 2008, 372, 2115) (in a total reaction volume of 250 μL) for 60 min at rt. At the end of the incubation, membranes were filtered onto a unifilter, a 96-well white microplate with bonded GF/B filter pre-incubated with 0.5% PEI, with a Tomtec cell harvester and washed 5 times with distilled water. Non-specific binding (NSB) was measured in the presence of 10 nM MK-3207 hydrochloride (CAS No. 957116-20-0). Radioactivity on the filter was counted (1 min) on a microbeta counter after addition of 50 μL of scintillation fluid. For inhibition experiments, membranes were incubated with 0.5 nM 3H-telcagepant and 10 concentrations of the inhibitory compound (0.001-10 μM). IC50 values were derived from the inhibition curve and the affinity constant (Ki) values were calculated using the Cheng-Prussoff equation (Cheng et al, Biochem. Pharmacol. 1973, 22, 3099-3108).

Calcitonin-gene-related peptide receptor, CALCRL/RAMP1, sequence (O60894 whole entry): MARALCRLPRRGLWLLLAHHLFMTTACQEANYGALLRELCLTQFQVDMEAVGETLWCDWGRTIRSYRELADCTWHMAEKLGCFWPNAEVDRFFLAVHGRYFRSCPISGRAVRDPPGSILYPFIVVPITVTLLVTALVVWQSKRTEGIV
Calcitonin-gene-related peptide receptor, CALCRL/RAMP1, sequence (Q16602 whole entry): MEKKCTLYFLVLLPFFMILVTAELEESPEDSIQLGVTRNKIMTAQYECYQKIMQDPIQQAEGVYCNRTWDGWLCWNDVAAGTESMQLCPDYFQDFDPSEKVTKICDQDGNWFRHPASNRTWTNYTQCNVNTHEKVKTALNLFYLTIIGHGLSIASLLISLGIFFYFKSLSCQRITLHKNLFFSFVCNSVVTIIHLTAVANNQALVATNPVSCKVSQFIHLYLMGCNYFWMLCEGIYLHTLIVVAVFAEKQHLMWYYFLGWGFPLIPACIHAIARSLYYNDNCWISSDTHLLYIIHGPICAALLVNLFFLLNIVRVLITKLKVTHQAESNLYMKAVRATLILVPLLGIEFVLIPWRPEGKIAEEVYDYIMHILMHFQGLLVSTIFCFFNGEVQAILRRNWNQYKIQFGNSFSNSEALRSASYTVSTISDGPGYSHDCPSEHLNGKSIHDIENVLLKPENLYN

With Cc1cc(C[C@@H](NC(=O)N2CCC(n3c(=O)[nH]c4ncccc43)CC2)C(=O)N[C@@H](CC2CCN(CCN(C)C)CC2)C(=O)N2CCN(c3ccncc3)CC2)cc2cn[nH]c12 the Ki was 0.025 nM.
